From patent publication US20260250318A1, “COMPOSITIONS AND METHODS FOR CROSSING THE BLOOD BRAIN BARRIER” (VOYAGER THERAPEUTICS, INC., priority 2022, published 2026)

What was measured:
Conditions in all cases: synthetic library passage 3, intravenous, relative to wild-type AAV9
brain [1] = experiment: NGS fold enrichment of synthetic library (passage 3) in BALB/c mice, first cross-species screen; type: in vivo
Method in brief: (§1)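 Fold enrichment versus wild-type AAV9 was derived by NGS of RT-PCR-amplified RNA from nervous tissue, collected e.g. 28 days after IV dosing […]. The library (passage 3) was given to two NHPs aged 2-4 years and to 6-8-week BALB/c and C57Bl/6 mice (n=3 each).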

[2] = tested on: brain, spinal cord, and DRG of the NHPs; experiment: NGS fold enrichment of synthetic library (passage 3) in NHPs, first cross-species screen; type: in vivo, cynomolgus macaques (Macaca fascicularis)
Method in brief: as §1

brain [3] = experiment: NGS fold enrichment of synthetic library (passage 3) in C57Bl/6 mice, first cross-species screen; type: in vivo
Method in brief: as §1

[4] = RNA from brain of BALB/c mice, NGS
[5] = RNA from spinal cord of NHPs, NGS
[6] = RNA from brain of C57Bl/6 mice, NGS

Sequence | Fold enrichment over AAV9 in the brain of Mice (BALB/c) (brain [1]; RNA NGS, brain of BALB/c mice) | Fold enrichment over AAV9 in the brain of NHPs ([2]; RNA NGS, brain of NHPs) | Fold enrichment over AAV9 in the spinal cord of NHPs ([2]; RNA NGS, spinal cord of NHPs) | Fold enrichment over AAV9 in the brain of Mice (C57Bl/6) (brain [3]; RNA NGS, brain of C57Bl/6 mice) | Fold enrichment over AAV9 in the brain of Mice (BALB/c) (brain [1]; [4]) | Fold enrichment over AAV9 in the brain of NHPs ([2]; RNA from brain of NHPs, NGS) | Fold enrichment over AAV9 in the spinal cord of NHPs [2, 5] | Fold enrichment over AAV9 in the brain of Mice (C57Bl/6) (brain [3]; [6])
GNYLHQASGQNQQT | 0.181 fold | 1.635 fold | 1.454 fold | 0.816 fold |  |  |  | 
GPLVNASSGQNQQT | 0.343 fold | 1.434 fold | 5.239 fold | 0.831 fold |  |  |  | 
GRGGIPQSGQNQQT | 1.181 fold | 2.352 fold | 8.683 fold | 1.639 fold |  |  |  | 
GSGQNQQLKSSAQT | 0.716 fold | 1.891 fold | 1.197 fold | 0.908 fold |  |  |  | 
GNGQNQQHSILHGT | 0.415 fold | 1.435 fold | 0.000 fold | 0.777 fold |  |  |  | 
GTDFGRQSSQNQQT | 0.797 fold | 2.346 fold | 3.196 fold | 1.021 fold |  |  |  | 
GSGQNQQTLYSSNT | 0.368 fold | 1.642 fold | 1.044 fold | 0.664 fold |  |  |  | 
GSGQLGLSVTNQQT |  |  |  |  | 0.376 fold | 1.364 fold | 6.906 fold | 1.395 fold
GSGYLRESPQNQQT | 0.677 fold | 2.311 fold | 0.878 fold | 0.331 fold |  |  |  | 
GSGQNQQLVSRVQT |  |  |  |  | 0.466 fold | 1.381 fold | 1.195 fold | 0.656 fold
GSGQNQQTNRGNPM | 1.098 fold | 1.860 fold | 3.402 fold | 1.349 fold |  |  |  | 
GSHGHYASGQKQQT | 0.685 fold | 2.016 fold | 0.000 fold | 0.895 fold |  |  |  | 
GPDRIGSSGQNQQT |  |  |  |  | 0.342 fold | 1.308 fold | 0.426 fold | 0.654 fold
GSGLSHSHQQNQQT | 0.592 fold | 2.109 fold | 5.852 fold | 1.256 fold |  |  |  | 
GSGMPQSHIQNQQT | 0.334 fold | 3.289 fold | 11.609 fold | 0.514 fold |  |  |  | 
GSGQDRNIVQNQQT | 0.632 fold | 2.112 fold | 0.229 fold | 0.454 fold |  |  |  | 
GSGQNQQSALRTQT | 1.421 fold | 1.568 fold | 1.913 fold | 1.581 fold |  |  |  | 
GSGQNRAQIGTQQT |  |  |  |  | 0.654 fold | 1.138 fold | 0.469 fold | 0.776 fold
GSEQTRQSGQNQQT |  |  |  |  | 0.900 fold | 1.321 fold | 0.514 fold | 0.734 fold
GSGVMTHVLQNQQT | 0.533 fold | 2.692 fold | 0.347 fold | 0.370 fold |  |  |  | 

Sequence | Fold enrichment over AAV9 in the brain of Mice (BALB/c) (brain [1]; RNA NGS, brain of BALB/c mice) | Fold enrichment over AAV9 in the brain of NHPs ([2]; RNA NGS, brain of NHPs) | Fold enrichment over AAV9 in the spinal cord of NHPs ([2]; RNA NGS, spinal cord of NHPs) | Fold enrichment over AAV9 in the brain of Mice (C57Bl/6) (brain [3]; RNA NGS, brain of C57Bl/6 mice) | Fold enrichment over AAV9 in the brain of Mice (BALB/c) (brain [1]; [4]) | Fold enrichment over AAV9 in the brain of NHPs ([2]; RNA from brain of NHPs, NGS) | Fold enrichment over AAV9 in the spinal cord of NHPs [2, 5] | Fold enrichment over AAV9 in the brain of Mice (C57Bl/6) (brain [3]; [6])
GSGMIIASMQNQQT | 0.415 fold | 1.469 fold | 6.722 fold | 1.135 fold |  |  |  | 
GSGLLHGKLQNQQT | 0.917 fold | 2.032 fold | 2.521 fold | 1.068 fold |  |  |  | 
GSGQNQSHYPSQQT |  |  |  |  | 0.402 fold | 1.228 fold | 4.315 fold | 0.644 fold
GGQVAPSSGQNQQT | 0.709 fold | 2.581 fold | 2.427 fold | 1.433 fold |  |  |  | 
GSGMPIRNVQNQQT | 0.631 fold | 1.584 fold | 0.138 fold | 0.684 fold |  |  |  | 
GSGTHYDNRQNQQT | 0.486 fold | 1.054 fold | 0.072 fold | 0.612 fold |  |  |  | 
GSGQIRESMGNQQT |  |  |  |  | 0.523 fold | 1.270 fold | 1.676 fold | 0.833 fold
GSGQGPQERGNQQT | 0.313 fold | 1.702 fold | 1.269 fold | 0.846 fold |  |  |  | 
GAGVHMVSGQNQQT | 0.791 fold | 1.987 fold | 6.488 fold | 1.055 fold |  |  |  | 
GSLLQAHSGQNQQT | 0.748 fold | 2.182 fold | 1.008 fold | 0.575 fold |  |  |  | 
GPAQHGTSGQNQQT |  |  |  |  | 0.615 fold | 1.407 fold | 0.866 fold | 1.030 fold
GSEYGHKSGQNQQT | 5.332 fold | 6.308 fold | 2.750 fold | 5.198 fold |  |  |  | 
GSGHSIRTDQNQQT | 0.148 fold | 3.074 fold | 15.600 fold | 0.229 fold |  |  |  | 
GSGTHNSAIQNQQT | 0.574 fold | 1.469 fold | 0.570 fold | 0.762 fold |  |  |  | 
GALTVMQSGQNQQT | 0.199 fold | 2.381 fold | 0.430 fold | 0.246 fold |  |  |  | 
GSGQNQQTHGGLRD | 1.298 fold | 1.519 fold | 6.487 fold | 1.913 fold |  |  |  | 
GESRAVLSGQNQQT | 0.368 fold | 1.476 fold | 0.938 fold | 0.789 fold |  |  |  | 
GSGSPRQLSQNQQT | 0.273 fold | 1.621 fold | 0.873 fold | 0.520 fold |  |  |  | 
GSGMPASRLQNQQT | 0.372 fold | 1.117 fold | 1.689 fold | 0.790 fold |  |  |  | 
GILLATPSGQNQQT | 0.288 fold | 1.931 fold | 8.205 fold | 1.341 fold |  |  |  | 
